Data taken from BindingDB's records for PubMed 32120325 (China Pharmaceutical University, 2020).

What was measured:
[1] = target: T1, Signal transducer and activator of transcription 3 (Homo sapiens, UniProt P40763); assay: Inhibition of IL-6 stimulated STAT3 phosphorylation in human PBMC preincubated with compound for 10 to 15 mins followed by IL-6 stimulation and measured after 15 mins by ELISA analysis
[2] = target: T1, Signal transducer and activator of transcription 3; assay: Inhibition of IL-23 stimulated STAT3 […] in human naive T cell preincubated with compound for 10 to 15 mins followed by IL-23 stimulation and measured after 15 mins by ELISA analysis

T1 sequence (P40763 whole entry): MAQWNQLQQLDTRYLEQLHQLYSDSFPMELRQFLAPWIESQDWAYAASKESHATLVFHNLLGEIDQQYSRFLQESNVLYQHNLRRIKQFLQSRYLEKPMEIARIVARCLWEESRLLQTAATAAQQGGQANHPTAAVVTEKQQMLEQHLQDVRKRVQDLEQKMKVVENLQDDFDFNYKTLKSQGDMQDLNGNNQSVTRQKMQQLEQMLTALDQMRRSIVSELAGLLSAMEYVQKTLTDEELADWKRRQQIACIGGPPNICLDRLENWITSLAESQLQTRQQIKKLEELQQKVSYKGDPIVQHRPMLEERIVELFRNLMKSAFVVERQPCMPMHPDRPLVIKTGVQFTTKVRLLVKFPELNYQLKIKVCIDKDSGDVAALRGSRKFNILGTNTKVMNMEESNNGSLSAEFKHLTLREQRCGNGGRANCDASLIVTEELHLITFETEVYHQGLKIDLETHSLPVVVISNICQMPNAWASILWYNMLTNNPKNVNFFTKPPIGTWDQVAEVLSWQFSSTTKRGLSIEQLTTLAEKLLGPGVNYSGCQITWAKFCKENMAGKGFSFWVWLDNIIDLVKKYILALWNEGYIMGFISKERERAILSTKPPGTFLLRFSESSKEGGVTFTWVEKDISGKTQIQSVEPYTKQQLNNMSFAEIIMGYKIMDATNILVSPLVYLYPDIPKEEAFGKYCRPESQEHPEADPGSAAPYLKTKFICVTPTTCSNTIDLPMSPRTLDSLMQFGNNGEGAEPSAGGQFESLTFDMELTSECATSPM

## CCS(=O)(=O)N1CC(CC#N)(n2cc(-c3ncnc4[nH]ccc34)cn2)C1 [LY-3009104]
[1]
  IC50: 44 nM
[2]
  IC50: 20 nM
